ChEMBL document CHEMBL3576823, “Cystargolides, 20S Proteasome Inhibitors Isolated from Kitasatospora cystarginea” (J Nat Prod, 2015)
Values belong to the compound of their own block, whether it stands above or below them.

What was measured:
[1] = Inhibition of chymotrypsin-like activity of rabbit 20S proteasome using Suc-LLVY-AMC as substrate after 2 hrs by fluorescence assay; design: species or system Oryctolagus cuniculus
[2] = Inhibition of proteasome (unknown origin); design: species or system Homo sapiens
[3] = target: T1, Proteasome Macropain subunit MB1 (Homo sapiens, UniProt P28074); experiment: Inhibition of chymotrypsin-like activity of human erythrocyte-derived 20S proteasome using Suc-LLVY-AMC as substrate preincubated for 10 mins followed by substrate addition measured every 15 secs for 30 mins by fluorescence assay
T1 sequence (P28074 whole entry): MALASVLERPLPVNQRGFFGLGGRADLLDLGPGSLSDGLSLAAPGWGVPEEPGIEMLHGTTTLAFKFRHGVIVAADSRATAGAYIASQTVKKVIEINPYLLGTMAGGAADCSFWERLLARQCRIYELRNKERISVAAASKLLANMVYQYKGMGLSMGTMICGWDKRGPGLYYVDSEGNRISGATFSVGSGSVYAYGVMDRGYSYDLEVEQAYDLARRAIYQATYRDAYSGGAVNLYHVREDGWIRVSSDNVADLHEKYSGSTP

SMILES: CC[C@H](C)[C@@H]1C(=O)O[C@H]1C(=O)N[C@H]1C[C@H]1C[C@H](NC(=O)[C@H](C)N)C(=O)O [BELACTOSIN A]
IC50 [1]: 210 nM

SMILES: CC[C@H](C)[C@@H]1C(=O)O[C@H]1C(=O)NCCC[C@H](NC(=O)[C@H](C)N)C(=O)O [BELACTOSIN C]
IC50 [1]: 210 nM

Results, then the compound that gave them:

IC50 [2]: 5 nM
SMILES: CC(C)C[C@H](NC(=O)[C@H](CCc1ccccc1)NC(=O)CN1CCOCC1)C(=O)N[C@@H](Cc1ccccc1)C(=O)N[C@@H](CC(C)C)C(=O)[C@@]1(C)CO1 [CARFILZOMIB]

Ki [2]: 0.6 nM
SMILES: CC(C)C[C@H](NC(=O)[C@H](Cc1ccccc1)NC(=O)c1cnccn1)B(O)O [BORTEZOMIB]

IC50 [3]: 360 nM
SMILES: CC[C@H](C)[C@H](NC(=O)[C@@H](NC(=O)C1OC(=O)C1C(C)C)C(C)C)C(=O)O (stereo not given in full)
